Patent publication US8075777B2, “Process for the separation of diastereomers” (E. I. du Pont de Nemours and Company, priority 2007, dated 2011)

How the values were obtained:
[1] = Single stage liquid-liquid extraction of HFC-4310mee with [bmim][BF4] in separatory funnel, GC analysis of upper phase; type: physicochemical; conditions: 7.2 g HFC-4310mee feed (88.8/11.2 vol % threo/erythro) mixed with 15.1 g [bmim][BF4]
Method: To evaluate this characterization, a sample of HFC-4310mee was analyzed by gas chromatography and found to contain 88.8 vol % HFC-4310mee-threo and 11.2 vol % HFC-4310mee-erythro diastereomers. A 7.2 gram sample of HFC-4310mee (i.e., the feed) was mixed with 15.1 grams of [bmim][BF4] (i.e., the extractant) in a separator funnel and vigorously mixed and then allowed to separate into two phases. […] [BF4]. The lower phase was separated from the top phase by opening the stopcock valve on the bottom of the separatory funnel and decanting off the lower phase. The remaining upper phase was analyzed by gas chromatography. The upper phase contained 91.8 vol % HFC-4310mee-threo and 8.2 vol % HFC-4310mee-erythro, which is in accordance with the ternary diagrams.

[2] = NRTL activity model correlation of LLE data (binary interaction parameters, equation 5); type: physicochemical; design: key to τ12^(0) / τ21^(0): constant term in τij = τij(0) + τij(1)/T + τij(2)T (NRTL, α=0.2); conditions: non-deuterated, α=0.2
Excerpt: Observed LLE data have been correlated with the NRTL (non-random two liquid) solution model as described in Shiflett, M. B. and Yokozeki, A. (Vapor-liquid-liquid equilibria of pentafluoroethane and ionic liquid [bmim][PF6] mixtures studied with the volumetric method, J. Phys. Chem. B (2006) 110:14436-14443); and in Shiflett, M. B. and Yokozeki, A. (Vapor-liquid-liquid equilibria of hydrofluorocarbons+1-butyl-3-methylimidazolium hexafluorophosphate, J. Chem. & Eng. Data (2006) 51:1931-1939).
The binary activity coefficients of the NRTL are given by:
[formula] where G12≡exp(−ατ12), and G21≡exp(−ατ21) (3)
α=0.2 (assumed to be a constant of 0.2 in this work).
xi=mole fraction of the i-th species.
The temperature-dependent binary interaction parameter (τij) is modeled here by a three term empirical equation: τ12=τ12^(0)+τ12^(1)/T+τ12^(2)T, and τ21=τ21^(0)+τ21^(1)/T+τ21^(2)T (5)
The binary LLE (L1 for liquid 1 and L2 for liquid 2) are mathematically described by the following equilibrium condition: γi^L1xi^L1=γi^L2xi^L2 (6) Thus, the two adjustable parameters τ12 and τ21 at a given T can be determined from one set of LLE experimental (volumetric method) data, using eq 6 (two nonlinearly coupled equations). We obtained several sets of such LLE data and can obtain τ12 and τ21 at respective T. Then, the empirical parameters in eq 5 were determined and are shown in Example 5, Table 5, where results for only the non-deuterated isomers with ionic liquids are given, since results for the deuterated isomer cases are similar to those in Table 5.

[3] = type: physicochemical
Excerpt: The separation of the erythro or threo diastereomer from a mixture thereof in HFC-4310mee involves one of the diastereomers being soluble to a greater extent in at least one ionic liquid than the other diastereomer is. In order to study this type of behavior, liquid-liquid equilibrium (LLE) and cloud point measurements on samples of HFC-4310mee were made as described in Examples 1 to 4. […]
Initially, the samples were mixed at room temperature (293.2 K) by vigorously shaking the sample containers. […] The water bath was stirred with an agitator (Arrow Engineering Co., Inc. model 1750, Hillside, N.J.) and the temperature measured with a thermocouple (Fluke Corporation, model 5211 thermometer, Everett, Wash.). The Fluke thermometer was calibrated using a standard platinum resistance thermometer (SPRT model 5699, Hart Scientific, American Fork, Utah, range 73 to 933 K) and readout (Blackstack model 1560 with SPRT module 2560). […]
The water bath temperature was initially set at about 283 K, and the sample containers were rocked back and forth. […] The mixing and measurement procedure was repeated each day and the heights plotted as a function of time until no further change in the heights was detected. […]

[4] = Cloud-point measurements / LCST of HFC-4310mee threo isomers plus ionic liquids; type: physicochemical
Excerpt: Starting at ambient temperature of about 293 K, where two liquid phases existed, the temperature was lowered (20 K/h) with manual mixing in a constant temperature bath (Tamson Instruments, TV4000LT, Zoetermeer, Netherlands) until only a single phase existed. The bath temperature was calibrated with the NIST traceable SPRT mentioned previously. Achieving a single phase with the mixtures prepared using [emim][BF4] involved going to a lower temperature than was required to achieve a single phase with the mixtures prepared using [bmim][PF6] and [bmim][BF4]. In addition, the rate of decrease in temperature had to be decreased from 20 to 5 K/h with vigorous manual mixing to prevent the ionic-liquid rich phase from solidifying. Sufficient time with vigorous mixing allowed for mixtures containing 70 mole % and higher threo-H and threo-D isomers with [emim][BF4] to become a single phase at a temperature of 240 K. Once the samples were single phase the temperature was slowly raised 2 K/h until a cloud layer became visible inside the tube. The temperature was recorded for each sample when the cloud layer formed and the temperature was slowly raised until all samples had reached the cloud point.

Structure (SMILES)	Content in upper phase (extract) by gas chromatography [1] [vol %]	τ12^(0) ([2]; isomer (1)/[bmim][BF4] (2))	τ12^(1)/K ([2]; isomer (1)/[bmim][BF4] (2)) [K]	τ12^(2)/K^−1 ([2]; isomer (1)/[bmim][BF4] (2)) [K^−1]	τ21^(0) ([2]; isomer (1)/[bmim][BF4] (2))	τ21^(1)/K ([2]; isomer (1)/[bmim][BF4] (2)) [K]	τ21^(2)/K^−1 ([2]; isomer (1)/[bmim][BF4] (2)) [K^−1]	τ12^(0) ([2]; isomer (1)/[bmim][PF6] (2))	τ12^(1)/K ([2]; isomer (1)/[bmim][PF6] (2)) [K]	τ12^(2)/K^−1 ([2]; isomer (1)/[bmim][PF6] (2)) [K^−1]	τ21^(0) ([2]; isomer (1)/[bmim][PF6] (2))	τ21^(1)/K ([2]; isomer (1)/[bmim][PF6] (2)) [K]	τ21^(2)/K^−1 ([2]; isomer (1)/[bmim][PF6] (2)) [K^−1]	τ12^(0) ([2]; isomer (1)/[emim][BF4] (2))	τ12^(1)/K ([2]; isomer (1)/[emim][BF4] (2)) [K]	τ12^(2)/K^−1 ([2]; isomer (1)/[emim][BF4] (2)) [K^−1]	τ21^(0) ([2]; isomer (1)/[emim][BF4] (2))	τ21^(1)/K ([2]; isomer (1)/[emim][BF4] (2)) [K]	τ21^(2)/K^−1 ([2]; isomer (1)/[emim][BF4] (2)) [K^−1]	Solubility in the present ionic liquids compared with the erythro-D and erythro-H isomers [3]	further results
F[C@H]([C@H](F)C(F)(F)C(F)(F)F)C(F)(F)F [HFC-4310mee Erythro-H, erythro-2,3-dihydrodecafluoropentanes]	8.2	−1.1221	1492.7	0	18.7323	−3018.8	−0.02457	−5.2583	2803.2	0	2.97	−584.1	0	25.6965	−3500.0	−0.03688	72.2927	−10850.0	−0.1125	–	–
[2H]C(F)(C(F)(F)F)C([2H])(F)C(F)(F)C(F)(F)F (stereo not drawn) [HFC-4310mee Threo-D]	–	–	–	–	–	–	–	–	–	–	–	–	–	–	–	–	–	–	–	more soluble	Cloud point T/K ([4]; [bmim][BF4], 59.9 ± 0.5 mol % HFC): 311 ± 1 K; Cloud point T/K ([4]; [bmim][BF4], 69.4 ± 0.5 mol % HFC): 310 ± 1 K; Cloud point T/K ([4]; [bmim][BF4], 80.1 ± 0.5 mol % HFC): 309 ± 1 K; Cloud point T/K ([4]; [bmim][BF4], 89.3 ± 0.5 mol % HFC): 310 ± 1 K; Cloud point T/K ([4]; [bmim][PF6], 40.0 ± 0.5 mol % HFC): 272 ± 1 K; Cloud point T/K ([4]; [bmim][PF6], 50.0 ± 0.5 mol % HFC): 271 ± 1 K; Cloud point T/K ([4]; [bmim][PF6], 59.7 ± 0.5 mol % HFC): 271 ± 1 K; Cloud point T/K ([4]; [bmim][PF6], 69.8 ± 0.5 mol % HFC): 267 ± 1 K; Cloud point T/K ([4]; [bmim][PF6], 79.7 ± 0.5 mol % HFC): 267 ± 1 K; Cloud point T/K ([4]; [bmim][PF6], 88.5 ± 0.5 mol % HFC): 272 ± 1 K; Cloud point T/K ([4]; [emim][BF4], 69.6 ± 0.5 mol % HFC): 252 ± 3 K; Cloud point T/K ([4]; [emim][BF4], 80.1 ± 0.5 mol % HFC): 261 ± 2 K; Cloud point T/K ([4]; [emim][BF4], 89.8 ± 0.5 mol % HFC): 273 ± 1 K
F[C@H]([C@@H](F)C(F)(F)C(F)(F)F)C(F)(F)F [HFC-4310mee Threo-H, threo-2,3-dihydrodecafluoropentanes]	91.8	91.1575	−1463.8	−0.1288	81.6624	−1506.8	−0.1092	145.421	−22306.3	−0.2229	−37.7767	5492.1	0.06485	50.3746	−7994.5	−0.06965	−7.2227	1138.3	0.0158	more soluble	LCST (lower critical solution temperature) ([4]; [bmim][BF4] system, at about 75 mole %): 307-309 K; Cloud point T/K ([4]; [bmim][BF4], 50.0 ± 0.5 mol % HFC): 311 ± 1 K; Cloud point T/K ([4]; [bmim][BF4], 59.1 ± 0.5 mol % HFC): 309 ± 1 K; Cloud point T/K ([4]; [bmim][BF4], 69.8 ± 0.5 mol % HFC): 308 ± 1 K; Cloud point T/K ([4]; [bmim][BF4], 79.5 ± 0.5 mol % HFC): 307 ± 1 K; Cloud point T/K ([4]; [bmim][BF4], 91.0 ± 0.5 mol % HFC): 308 ± 1 K; LCST (lower critical solution temperature) ([4]; [bmim][PF6] system, at about 70 (threo-isomer) mole %): 265-267 K; Cloud point T/K ([4]; [bmim][PF6], 40.6 ± 0.5 mol % HFC): 270 ± 1 K; Cloud point T/K ([4]; [bmim][PF6], 50.8 ± 0.5 mol % HFC): 269 ± 1 K; Cloud point T/K ([4]; [bmim][PF6], 60.4 ± 0.5 mol % HFC): 268 ± 1 K; Cloud point T/K ([4]; [bmim][PF6], 69.7 ± 0.5 mol % HFC): 265 ± 1 K; Cloud point T/K ([4]; [bmim][PF6], 80.0 ± 0.5 mol % HFC): 264 ± 1 K; Cloud point T/K ([4]; [bmim][PF6], 90.0 ± 0.5 mol % HFC): 276 ± 1 K; LCST (lower critical solution temperature) ([4]; [emim][BF4] system, at near 50 mole %): about 250 K; Cloud point T/K ([4]; [emim][BF4], 69.8 ± 0.5 mol % HFC): 250 ± 3 K; Cloud point T/K ([4]; [emim][BF4], 80.0 ± 0.5 mol % HFC): 260 ± 2 K; Cloud point T/K ([4]; [emim][BF4], 90.1 ± 0.5 mol % HFC): 268 ± 1 K
